The source of these data is ChEMBL document CHEMBL3045529, “A rational design, synthesis, characterization, and antihypertensive activities of some new substituted benzimidazoles” (2013).

For the assay, the system named is Cavia porcellus. The assay is described as follows: Antihypertensive activity in Cavia porcellus (guinea pig) assessed as decrease in systolic blood pressure at 3 mg/kg, iv relative to control. The assay is classed as functional, Artery.
With `C/C=N/c1ccc2c(c1)nc(CCCC)n2Cc1ccc(-c2ccccc2-c2nnn[nH]2)cc1`, the Activity stood at 27 mmHg.

Turning to `CCCCc1nc2cc(N)ccc2n1Cc1ccc(-c2ccccc2-c2nnn[nH]2)cc1`, the Activity came out at 19 mmHg.

With `CCCCc1nc2cc(NC(=O)c3ccccc3)ccc2n1Cc1ccc(-c2ccccc2-c2nnn[nH]2)cc1`, the Activity was found to be 28 mmHg. The figure for `CCCCc1nc2cc([N+](=O)[O-])ccc2n1Cc1ccc(-c2ccccc2-c2nnn[nH]2)cc1` is 15 mmHg; for `CCCCc1nc2cc(NCC)ccc2n1Cc1ccc(-c2ccccc2-c2nnn[nH]2)cc1` it is 29 mmHg; for `CCCCc1nc2cc(N(CC)CC)ccc2n1Cc1ccc(-c2ccccc2-c2nnn[nH]2)cc1` it is 33 mmHg. The figure for `CCCCc1nc2cc(NCc3ccccc3)ccc2n1Cc1ccc(-c2ccccc2-c2nnn[nH]2)cc1` is 31 mmHg. In the case of `CCC/C=N/c1ccc2c(c1)nc(CCCC)n2Cc1ccc(-c2ccccc2-c2nnn[nH]2)cc1`, the Activity is reported as 17 mmHg. With `CCCCC/C=N/c1ccc2c(c1)nc(CCCC)n2Cc1ccc(-c2ccccc2-c2nnn[nH]2)cc1`, the Activity turned out to be 25 mmHg.

For the compound `CCCCNc1ccc2c(c1)nc(CCCC)n2Cc1ccc(-c2ccccc2-c2nnn[nH]2)cc1`, the Activity amounted to 31 mmHg.

Consider `CCCC/C=N/c1ccc2c(c1)nc(CCCC)n2Cc1ccc(-c2ccccc2-c2nnn[nH]2)cc1`, for which the Activity worked out at 27 mmHg. The figure for `CCCCc1nc2cc(NC(C)=O)ccc2n1Cc1ccc(-c2ccccc2-c2nnn[nH]2)cc1` is 22 mmHg; for `CCCCc1nc2cc(NCCC)ccc2n1Cc1ccc(-c2ccccc2-c2nnn[nH]2)cc1` it is 32 mmHg. The figure for `CCCCc1nc(Cl)c(CO)n1Cc1ccc(-c2ccccc2-c2nnn[nH]2)cc1` [LOSARTAN] is 34 mmHg; for `CC/C=N/c1ccc2c(c1)nc(CCCC)n2Cc1ccc(-c2ccccc2-c2nnn[nH]2)cc1` it is 18 mmHg; for `CCCCc1nc2cc(NC)ccc2n1Cc1ccc(-c2ccccc2-c2nnn[nH]2)cc1` it is 12 mmHg. The figure for `CCCCc1nc2cc(N(C)C)ccc2n1Cc1ccc(-c2ccccc2-c2nnn[nH]2)cc1` is 29 mmHg.
